This test has as its system 855422-203-R-J1-PDC complex spheroid growth. Description: Anticancer human tumor 855422-203-R-J1-PDC patient-derived bladder carcinoma cell line growth inhibition [AhR]. Particulars: for viability, T/C: stronger effect = lower value; for IC50: curve of compound. An excerpt: Multicellular complex tumor spheroid response to aryl hydrocarbon receptor antagonists in combination with a variety of drugs and investigational agents in selected tumor cell lines
The current study was undertaken to assess response to aryl hydrocarbon receptor antagonists in combination with standard-of-care drugs and investigational agents in solid tumor complex spheroid models. Complex spheroids include a stromal component modeled by human endothelial cells (HUVEC) and fibroblasts modeled by human mesenchymal stem cells (MSCs). The concentration ranges selected for each drug and investigational agent were based upon clinically achievable concentrations if the clinical Cmax of the agent was known.
Compounds. The drugs and investigational agents: BAY 2416964 (NSC825713), GNF351 (NSC835774), CH-223191 (NSC835775), CPI-455 (NSC825282), aza-TdCyd (NSC777586), decitabine (NSC127716), belinostat (NSC758774), entinostat (NSC756642), pevonedistat (NSC761192), tazemetostat (NSC777109), talazoparib (NSC765396), olaparib (NSC753686), selinexor (NSC780203), nedisertib (M3814, NSC802822), bortezomib (NSC756655), venetoclax (NSC766270), doxorubicin (NSC123127), elimusertib (BAY189344, NSC800525), ceralasertib (AZD6738, NSC777638), TAK-243 (NSC785004), alisertib (NSC759677), etoposide (NSC141540), topotecan (NSC609699), eribulin (NSC707389), gemcitabine (NSC613327), carboplatin (NSC241240), cisplatin (NSC119875), and SN-38 (NSC673596) were obtained from the National Cancer Institute (NCI) Developmental Therapeutics Program Chemical Repository (32). The FDA-approved anticancer drug set is available from the Developmental Therapeutics Program at https://dtp.cancer.gov/organization/dscb/obtaining/available plates.htm. […] The stock solutions were prepared in dimethyl sulfoxide (DMSO, Sigma-Aldrich, St. Louis, MO, cat. D2650), except for the platinum compounds which were prepared in saline (Quality Biological, Gaithersburg, MD, cat. 114-055-101), at 800-fold the tested concentration and stored at -70 degrees C prior to their use. All drugs and investigational agents were tested over a range starting from a high concentration at or near the clinical Cmax and decreasing in half-log increments. If the clinical Cmax for an agent had not been determined, the highest concentration tested was 10 microM (Table 1).
Cell Culture. All cells were maintained in an incubator at 37 degrees C and 5% CO2 with 95% humidity. The PDC lines were cultured according to standard operating procedures established by the NCI PDMR (https://pdmr.cancer.gov). Briefly, all PDCs were thawed and cultured in Matrigel-coated flasks prepared with a working solution of 1X Ham's F-12 nutrient mix, without supplementation (Invitrogen, Waltham, MA, cat. 11765054), 100 U/mL penicillin-streptomycin (Invitrogen, cat. 15140122), and 2.5% Matrigel (Corning Inc., Corning, NY, cat. 354248) for the first three passages. All PDCs were cultured in complete DMEM/F-12 media containing advanced DMEM/F-12 (Invitrogen, cat. 12634028), 4.9% defined fetal bovine serum, heat inactivated (HyClone Laboratories Inc., Logan, UT, cat. SH30070.03HI), 389 ng/mL hydrocortisone (Sigma-Aldrich, cat. H4001), 9.7 ng/mL human EGF recombinant protein (Invitrogen, cat. PHG0313), 23.4 microg/mL adenine (Sigma-Aldrich, cat. A2786), 97.3 U/mL penicillin-streptomycin (Invitrogen, cat. 15140122), 1.9 mM L-glutamine (Invitrogen, cat. 25030081), and 9.7 microM Y-27632 dihydrochloride (Tocris Bioscience, Bristol, United Kingdom, cat. 1254). The PDCs were cultured in complete DMEM/F12 media without 10 microM Y-27632 dihydrochloride for at least two passages prior to the screen. The established cell lines NCI-H1341 and […] were cultured in DMEM/F-12, HEPES (Invitrogen, cat. 11330032), 5% defined fetal bovine serum (HyClone Laboratories Inc., cat. SH30070.03), ITS premix universal culture supplement [insulin (5 microg/mL), transferrin (5 microg/mL), and selenious acid (5 ng/mL)] […]

The structures appear in SMILES notation. Several values for one entry are separate records, joined by “and”; a condition that tells them apart may be missing. Identical values can stand only once.
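Further: spheroids exposed to agents for seven days before readout.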
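Wherever viability, T/C is given: percent of DMSO vehicle control luminescence viability.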

As to `CC(C)CC(NC(=O)C(Cc1ccccc1)NC(=O)c1cnccn1)B(O)O` (stereo unspecified), the 50% inhibitory concentration (IC50) was 0.00279 µM and 0.00576 µM and 0.00185 µM. For the same compound, the viability, T/C (compound 0.000949 µM) is 110% and 101% and 118%. For the same compound, where the note is “compound 0.00949 µM”, the viability, T/C is 0.21% and 0.27% and 0.11%. Under “compound 0.03 µM”, the viability, T/C was 0.16% and 0.14% and 0.42%. The viability, T/C (compound 0.0949 µM) is 0.15% and 0.14% and 0.12%. Also, under “compound 0.3 µM”, the viability, T/C is 0.19% (2×) and 0.21%.
Take `CC1(C)CCC(CN2CCN(c3ccc(C(=O)NS(=O)(=O)c4ccc(NCC5CCOCC5)c([N+](=O)[O-])c4)c(Oc4cnc5[nH]ccc5c4)c3)CC2)=C(c2ccc(Cl)cc2)C1`: the IC50 is 6.19 µM and 6.99 µM and 5.93 µM. In addition, the viability, T/C (compound 0.0316 µM) was 98.4% and 107% and 103%. The viability, T/C (compound 0.1 µM) is 95.8% and 106% and 98.7%. The viability, T/C (compound 0.316 µM) was 108% and 103% (2×). The viability, T/C (compound 1 µM) was 97.6% and 116% and 104%. Besides, the viability, T/C (compound 3.16 µM) is 108% and 118% and 100%. The viability, T/C (compound 10 µM) is 13.2% and 22.8% and 8.45%.
With `CC1COCCN1c1cc(-c2ccnn2C)c2ccnc(-c3ccn[nH]3)c2n1` (stereo unspecified), the IC50 was 0.244 µM and 0.546 µM and 0.421 µM. In addition, the viability, T/C (compound 0.00316 µM) was 99.8% and 104% and 109%. Also, the viability, T/C (compound 0.01 µM) is 100% and 108% and 107%. Further, the viability, T/C (compound 0.0316 µM) was 106% and 101% and 96.2%. Under “compound 0.1 µM”, the viability, T/C is 98.3% and 103% and 91.9%. The viability, T/C (compound 0.316 µM) is 36.1% and 71.9% and 59.7%. Moreover, the viability, T/C (compound 1 µM) was 12.2% and 25.8% and 17.1%.
Regarding `CCN(c1cc(-c2ccc(CN3CCOCC3)cc2)cc(C(=O)NCc2c(C)cc(C)[nH]c2=O)c1C)C1CCOCC1`, the IC50 is greater than 3 µM. The viability, T/C (compound 0.00949 µM) is 105% (2×) and 109%. Moreover, the viability, T/C (compound 0.03 µM) was 100% and 102% and 108%. For the setting “compound 0.0949 µM”, the viability, T/C was 100% and 105% and 99.7%. Moreover, the viability, T/C (compound 0.3 µM) was 94.2% and 98.2% and 97.3%. For the same compound, the viability, T/C (compound 0.949 µM) is 96.8% and 91.9% and 88.2%. For the same compound, the viability, T/C (compound 3 µM) is 78.1% and 92.2% and 80.9%.
For `CC[C@@]1(O)C(=O)OCc2c1cc1n(c2=O)Cc2cc3c(CN(C)C)c(O)ccc3nc2-1`, the IC50 was 0.0599 µM and 0.0729 µM and 0.0947 µM. Further, the viability, T/C (compound 0.000316 µM) was 93% and 97.1% and 101%. Moreover, the viability, T/C (compound 0.001 µM) was 114% and 106% (2×). For the same compound, the viability, T/C (compound 0.00316 µM) is 98.4% and 103% and 105%. For the same compound, the viability, T/C (compound 0.01 µM) is 99.3% and 101% and 106%. Further, the viability, T/C (compound 0.0316 µM) was 85% and 93.4% and 94.9%. For the same compound, where the note is “compound 0.1 µM”, the viability, T/C is 22.1% and 33.6% and 47.4%.
`CCc1c2c(nc3ccc(O)cc13)-c1cc3c(c(=O)n1C2)COC(=O)[C@]3(O)CC`: the concentration for half-maximal inhibition (IC50) is 0.00817 µM and 0.0207 µM and 0.0097 µM. Moreover, for the setting “compound 0.000949 µM”, the viability, T/C is 96.8% and 105% and 92.3%. Moreover, where the note is “compound 0.003 µM”, the viability, T/C was 83.7% and 99.2% and 88.8%. Further, for the setting “compound 0.00949 µM”, the viability, T/C was 44.9% and 86.1% and 49.6%. Also, the viability, T/C (compound 0.03 µM) is 14.9% and 32.5% and 16.6%. Also, the viability, T/C (compound 0.0949 µM) was 8.05% and 16.5% and 9.46%. For the same compound, the viability, T/C (compound 0.3 µM) is 5.61% and 9.17% and 5.63%.
Consider `COc1cc(C2c3cc4c(cc3C(OC3OC5COC(C)OC5C(O)C3O)C3COC(=O)C23)OCO4)cc(OC)c1O` (stereo unspecified), for which the 50% inhibitory concentration (IC50) was 0.417 µM and 0.584 µM and 0.553 µM. Besides, the viability, T/C (compound 0.0316 µM) was 96.6% and 94.9% and 94.2%. The viability, T/C (compound 0.1 µM) was 98.4% and 97.4% and 106%. Where the note is “compound 0.316 µM”, the viability, T/C was 61% and 81.5% and 67.7%. Moreover, for the setting “compound 1 µM”, the viability, T/C is 14.2% and 22% and 29.3%. Also, the viability, T/C (compound 3.16 µM) is 9.05% and 11.6% and 17.3%. Besides, the viability, T/C (compound 10 µM) is 4.28% and 5.57% and 7.14%.
Regarding `COc1cc(Nc2ncc3c(n2)-c2ccc(Cl)cc2C(c2c(F)cccc2OC)=NC3)ccc1C(=O)O`, the viability, T/C (compound 0.0316 µM) is 102% and 109% and 95.2%; the viability, T/C (compound 0.1 µM) was 105% and 114% (2×); the viability, T/C (compound 0.316 µM) is 60.7% and 90.8% and 66.4%; the viability, T/C (compound 1 µM) was 55.4% and 89% and 51.6%; the viability, T/C (compound 3.16 µM) is 47.3% and 82.6% and 48.8%; the viability, T/C (compound 10 µM) was 45.4% and 68.6% and 47%.
On to `COc1cccc2c1C(=O)c1c(O)c3c(c(O)c1C2=O)CC(O)(C(=O)CO)CC3OC1CC(N)C(O)C(C)O1` (stereo unspecified), for which the 50% inhibitory concentration (IC50) is less than 0.0316 µM. The viability, T/C (compound 0.0316 µM) is 19% and 41.1% and 29.2%. Also, the viability, T/C (compound 0.1 µM) is 13.1% and 28.8% and 16.9%. Further, the viability, T/C (compound 0.316 µM) is 3.14% and 7.44% and 4.25%. For the same compound, the viability, T/C (compound 1 µM) is 0.97% and 2.58% and 1.55%. Moreover, for the setting “compound 3.16 µM”, the viability, T/C was 1.22% and 1.89% and 0.79%. Further, under “compound 10 µM”, the viability, T/C was 1.82% and 4.62% and 3.32%.

The viability, T/C is the result in the treated group divided by that in the control group, in per cent. Usually IC50 stands for the concentration needed to halve the response being measured.

Values taken from PubChem BioAssay AID1919005 (Molecular Pharmacology Branch, DTP, NCI, 2023).
